Test results published in PubChem BioAssay (NCI).
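Each compound was tested at five concentrations against cells in 96-well plates for 48 hours. Here, GI50 denotes the concentration required for 50% inhibition of growth. TGI: total growth inhibition.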

Experiments:
Assay in all cases: NCI tumour cell line growth inhibition, 48 h
[1] = system: COLO 205 colon
[2] = system: MDA-MB-231 breast
[3] = system: K-562 leukemia
[4] = system: HT29 colon
[5] = system: NCI-H226 lung
[6] = system: SR leukemia
[7] = system: BT-549 breast
[8] = system: IGROV1 ovarian
[9] = system: A498 renal
[10] = system: KM12 colon
[11] = system: CAKI-1 renal
[12] = system: HCT-116 colon
[13] = system: CCRF-CEM leukemia
[14] = system: SNB-19 CNS
[15] = system: SF-539 CNS
[16] = system: SK-MEL-2 melanoma
[17] = system: HCT-15 colon
[18] = system: HS 578T breast
[19] = system: OVCAR-5 ovarian
[20] = system: OVCAR-4 ovarian
[21] = system: PC-3 prostate
[22] = system: MOLT-4 leukemia
[23] = system: T-47D breast
[24] = system: OVCAR-3 ovarian
[25] = system: SW-620 colon
[26] = system: TK-10 renal
[27] = system: U251 CNS
[28] = system: SF-295 CNS
[29] = system: OVCAR-8 ovarian
[30] = system: A549 NSCLC
[31] = system: MCF7 breast
[32] = system: UACC-62 melanoma
[33] = system: SK-MEL-5 melanoma
[34] = system: HOP-62 NSCLC
[35] = system: RPMI-8226 leukemia
[36] = system: SK-MEL-28 melanoma
[37] = system: MDA-MB-435
[38] = system: SNB-75 CNS
[39] = system: LOX IMVI melanoma
[40] = system: UACC-257 melanoma
[41] = system: SF-268 CNS
[42] = system: ACHN renal
[43] = system: HCC-2998 colon
[44] = system: RXF 393 renal
[45] = system: HL-60(TB) leukemia
[46] = system: M14 melanoma
[47] = system: DU-145 prostate
[48] = system: NCI-H522 lung
[49] = system: NCI-H460 lung
[50] = system: MALME-3M melanoma
[51] = system: UO-31 renal
[52] = system: HOP-92 NSCLC
[53] = system: SN12C renal
[54] = system: 786-0 renal
[55] = system: NCI/ADR-RES ovarian
[56] = system: SK-OV-3 ovarian
[57] = system: NCI-H23 lung

`O=C1/C(=C\c2ccc(Br)cc2)CN(C(=O)c2ccccc2F)C/C1=C\c1ccc(Br)cc1` gave a GI50 [1] of 1.91 µM, a TGI [1] of 3.82 µM and a GI50 [2] of 2.73 µM. For the same compound, the TGI [2] was 7.89 µM, the GI50 [3] was 1.12 µM and the TGI [3] was greater than 25.1 µM. For the same compound, the GI50 [4] was 0.61 µM, the TGI [4] was 2.17 µM and the GI50 [5] was 5.07 µM. The TGI [5] was 13.6 µM, the GI50 [6] was 0.339 µM and the TGI [6] was 3.2 µM. It also gave a GI50 [7] of 1.82 µM, a TGI [7] of 3.56 µM and a GI50 [8] of 2.29 µM. For the same compound, the TGI [8] was 4.89 µM, the GI50 [9] was 2.87 µM and the TGI [9] was 10.4 µM. For the same compound, the GI50 [10] was 0.646 µM, the TGI [10] was 2.06 µM and the GI50 [11] was 3.05 µM. The TGI [11] was 20 µM, the GI50 [12] was 0.202 µM and the TGI [12] was 0.417 µM. For the same compound, the GI50 [13] was 0.854 µM, the TGI [13] was greater than 26.5 µM and the GI50 [14] was 2.06 µM. It also gave a TGI [14] of 6.65 µM, a GI50 [15] of 1.75 µM and a TGI [15] of 3.22 µM. The GI50 [16] was 4.77 µM, the TGI [16] was 17.5 µM and the GI50 [17] was 1.91 µM. It also gave a TGI [17] of 6.65 µM, a GI50 [18] of 2.15 µM and a TGI [18] of 6.76 µM. It also gave a GI50 [19] of 2.45 µM, a TGI [19] of 7.06 µM and a GI50 [20] of 1.96 µM. The TGI [20] was 5.01 µM, the GI50 [21] was 1.73 µM and the TGI [21] was 4.21 µM. The GI50 [22] was 2.83 µM, the TGI [22] was greater than 29.5 µM and the GI50 [23] was 3.47 µM. The TGI [23] was 24.1 µM, the GI50 [24] was 1.91 µM and the TGI [24] was 3.52 µM. For the same compound, the GI50 [25] was 0.913 µM, the TGI [25] was 2.95 µM and the GI50 [26] was 2.84 µM. For the same compound, the TGI [26] was 7.46 µM, the GI50 [27] was 1.33 µM and the TGI [27] was 2.69 µM. For the same compound, the GI50 [28] was 2.18 µM, the TGI [28] was 5.64 µM and the GI50 [29] was 2.84 µM. The TGI [29] was 15.7 µM, the GI50 [30] was 2.21 µM and the TGI [30] was 6.16 µM. The GI50 [31] was 0.308 µM, the TGI [31] was 1.38 µM and the GI50 [32] was 1.76 µM. The TGI [32] was 4.03 µM, the GI50 [33] was 1.93 µM and the TGI [33] was 4.04 µM. It also gave a GI50 [34] of 1.83 µM, a TGI [34] of 3.82 µM and a GI50 [35] of 0.119 µM. It also gave a TGI [35] of 0.903 µM, a GI50 [36] of 2.29 µM and a TGI [36] of 5.65 µM. It also gave a GI50 [37] of 1.1 µM, a TGI [37] of 3.33 µM and a GI50 [38] of 2.03 µM. The TGI [38] was 7.44 µM, the GI50 [39] was 0.334 µM and the TGI [39] was 1.01 µM. For the same compound, the GI50 [40] was 2.35 µM, the TGI [40] was 6.59 µM and the GI50 [41] was 2.81 µM. It also gave a TGI [41] of 8.83 µM, a GI50 [42] of 1.95 µM and a TGI [42] of 3.93 µM. It also gave a GI50 [43] of 1.65 µM, a TGI [43] of 3.16 µM and a GI50 [44] of 1.6 µM. It also gave a TGI [44] of 3.08 µM, a GI50 [45] of 1.74 µM and a TGI [45] of 5.29 µM. For the same compound, the GI50 [46] was 1.79 µM, the TGI [46] was 3.78 µM and the GI50 [47] was 3.79 µM. It also gave a TGI [47] of 16.8 µM, a GI50 [48] of 2.15 µM and a TGI [48] of 4.94 µM. It also gave a GI50 [49] of 3.1 µM, a TGI [49] of 11.6 µM and a GI50 [50] of 2.61 µM. For the same compound, the TGI [50] was 7.91 µM, the GI50 [51] was 1.53 µM and the TGI [51] was 3.16 µM. For the same compound, the GI50 [52] was 2.21 µM, the TGI [52] was 6.76 µM and the GI50 [53] was 1.98 µM. It also gave a TGI [53] of 4.92 µM, a GI50 [54] of 1.69 µM and a TGI [54] of 3.13 µM. It also gave a GI50 [55] of 2.9 µM, a TGI [55] of 17.7 µM and a GI50 [56] of 2.43 µM. It also gave a TGI [56] of 5.71 µM, a GI50 [57] of 2.49 µM and a TGI [57] of 6.39 µM.
